According to patent US20120214862A1, “MODULATION OF FACTOR 7 EXPRESSION” (ISIS Pharmaceuticals, Inc., priority 2009, published 2012):
In the oligonucleotide strings, read from the 5' end, every base follows the letter of its sugar. An asterisk marks phosphorothioate; unmarked linkages are phosphodiester. Other units and linkages are bracketed, terminal groups are in braces. A string of capitals states the bases alone. e = 2'-O-(2-methoxyethyl) (MOE); [5mC] = 5-methylcytosine; d = 2'-deoxy (DNA)

System: human Factor 7 mRNA
Assay: Antisense inhibition of human Factor 7 mRNA in HepB3 cells, lipofectin, 50 nM, real-time RT-PCR
Type: cell-based
Settings: Example 1; HepB3 cells, lipofectin, 50 nM, ~24 h, relative to untreated control cells
Method in brief: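 Seeding density was 4,000 cells per well. Following roughly 24 hours of oligonucleotide treatment, RNA was extracted and Factor 7 message quantified using the RTS 2927 primer probe set. Levels were corrected for RIBOGREEN® total RNA and expressed against untreated controls.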

Point of comparison: “407605 (antisense eT*eT*eG*eA*eG*dG*d[5mC]*dA*d[5mC]*dA*d[5mC]*dT*dG*dG*dT*e[5mC]*e[5mC]*e[5mC]*e[5mC]*eA) [compound 407605]”, “% Inhibition (human Factor 7 mRNA)” value 58%. Against it:
- 407652 (antisense eT*eG*eG*eG*eA*dG*d[5mC]*dT*dA*d[5mC]*dA*dG*d[5mC]*d[5mC]*dT*e[5mC]*eA*eA*eA*e[5mC]) [compound 407652] — lower, 30%
- 407927 (antisense eA*eG*eG*eT*eA*dA*dG*dG*dA*dG*dG*d[5mC]*dT*d[5mC]*dA*eG*e[5mC]*eT*eG*eG) [compound 407927] — lower, 55%
- 407916 (antisense eG*eT*eG*eG*e[5mC]*d[5mC]*d[5mC]*dA*d[5mC]*dG*dG*dT*dT*dG*d[5mC]*eG*e[5mC]*eA*eG*e[5mC]) [compound 407916] — lower, 53%
- 407654 (antisense e[5mC]*e[5mC]*eA*e[5mC]*eT*dG*d[5mC]*dA*dG*d[5mC]*d[5mC]*dA*dG*dG*dG*e[5mC]*e[5mC]*eT*eG*eG) [compound 407654] — lower, 34%
- 407668 (antisense eG*eA*eA*eG*e[5mC]*d[5mC]*dT*dT*dA*d[5mC]*d[5mC]*dT*dG*d[5mC]*d[5mC]*eA*eT*eG*eG*eA) [compound 407668] — lower, 54%
- 407607 (antisense eT*eG*eG*eA*eG*d[5mC]*dT*dG*dG*dT*d[5mC]*d[5mC]*dT*dT*dG*e[5mC]*eA*eG*eG*eA) [compound 407607] — higher, 76%
- 407906 (antisense eA*e[5mC]*e[5mC]*eA*e[5mC]*dG*dG*dG*d[5mC]*dT*dG*dG*dT*dG*d[5mC]*eA*eG*eG*e[5mC]*eG) [compound 407906] — lower, 4%
- 407919 (antisense eT*e[5mC]*eG*eA*eT*dG*dT*dA*d[5mC]*dT*dG*dG*dG*dA*dG*eA*e[5mC]*e[5mC]*e[5mC]*eT) [compound 407919] — higher, 84%
- 407942 (antisense e[5mC]*eA*e[5mC]*eA*eG*dG*dT*dG*dT*dG*d[5mC]*dG*dG*dA*dG*eG*eA*eG*eA*e[5mC]) [compound 407942] — lower, 41%
- 407956 (antisense eA*eA*e[5mC]*eT*eT*dG*d[5mC]*dA*dT*dT*dT*dA*dG*dT*dG*eA*eT*eG*e[5mC]*eG) [compound 407956] — lower, 19%
- 407623 (antisense eT*e[5mC]*e[5mC]*eA*eT*dT*d[5mC]*dA*d[5mC]*d[5mC]*dA*dA*d[5mC]*dA*dA*e[5mC]*eA*eG*eG*eA) [compound 407623] — higher, 69%
- 407958 (antisense eG*e[5mC]*e[5mC]*eG*eT*dG*d[5mC]*dT*dT*dG*d[5mC]*d[5mC]*dG*dG*dA*eG*eT*e[5mC]*eT*eG) [compound 407958] — the same, 58%
- 407931 (antisense e[5mC]*eT*eT*e[5mC]*eA*dG*dA*dG*dG*dA*d[5mC]*dA*dG*d[5mC]*dA*e[5mC]*eA*e[5mC]*eA*eT) [compound 407931] — lower, 56%
- 407952 (antisense eG*eG*eA*eT*e[5mC]*d[5mC]*dT*dG*dG*dG*dA*dG*d[5mC]*dT*dA*e[5mC]*eA*eG*e[5mC]*e[5mC]) [compound 407952] — lower, 41%
- 407619 (antisense eA*eG*eA*eA*eT*dA*dG*dG*dT*dA*dT*dT*dT*dT*dT*e[5mC]*e[5mC]*eA*e[5mC]*eA) [compound 407619] — higher, 64%

Same assay, conditions: Example 4; HepB3 cells, lipofectin, 50 nM, ~24 h, relative to untreated control

Point of comparison: “422191 (antisense eA*eG*e[5mC]*dG*d[5mC]*dG*dG*dA*dA*dG*dA*dA*dG*dG*dG*dA*d[5mC]*eG*eG*eA) [compound 422191]”, “% Inhibition (human Factor 7 mRNA)” value 27%. Against it:
- 422117 (antisense eG*eG*eA*eA*eG*dA*dA*dG*dG*dG*dA*d[5mC]*dG*dG*dA*eA*eG*eG*eT*eG) [compound 422117] — lower, 1%

Same assay, conditions: Example 6 microwalk, nucleobases 15098 to 15122 of SEQ ID NO: 1; HepB3, lipofectin, 50 nM, ~24 h

Point of comparison: “422286 (antisense eA*eG*d[5mC]*dA*d[5mC]*dA*d[5mC]*dA*dT*dG*dG*dA*dG*dT*d[5mC]*eA*eG*e[5mC]*eA*eT) [compound 422286]”, “% Inhibition (human Factor 7 mRNA)” value 53%. Against it:
- 422284 (antisense e[5mC]*eA*d[5mC]*dA*d[5mC]*dA*dT*dG*dG*dA*dG*dT*d[5mC]*dA*dG*e[5mC]*eA*eT*e[5mC]*eG) [compound 422284] — lower, 43%

Same assay, conditions: HepB3 cells, lipofectin, 50 nM antisense oligonucleotide, approximately 24 hours, primer probe set RTS 2927, relative to untreated control

Point of comparison: “416468 (antisense eT*eG*eG*eG*eA*dG*dA*d[5mC]*d[5mC]*d[5mC]*dT*dG*dG*dT*dG*eT*eA*e[5mC]*eA*e[5mC]) [compound 416468]”, “% Inhibition of human Factor 7 mRNA levels” value 46%. Against it:
- 416431 (antisense eA*eG*eG*eG*eA*dG*d[5mC]*d[5mC]*d[5mC]*dG*dG*d[5mC]*d[5mC]*dG*d[5mC]*eA*eG*e[5mC]*eT*e[5mC]) [compound 416431] — lower, 25%
- 416448 (antisense eT*eT*eT*eT*eT*d[5mC]*d[5mC]*dA*d[5mC]*dA*dT*dG*dG*dA*dT*eA*eT*eT*e[5mC]*eA) [compound 416448] — lower, 34%
- 416566 (antisense eG*eT*eT*eT*eG*dT*dA*dT*dG*dG*dA*dG*dA*dG*dA*e[5mC]*e[5mC]*eA*eA*eT) [compound 416566] — lower, 0%
- 416482 (antisense e[5mC]*eA*eT*eG*eG*dT*dG*dA*dT*dG*d[5mC]*dT*dT*d[5mC]*dT*eG*eA*eA*eT*eT) [compound 416482] — higher, 64%
- 416440 (antisense eG*eG*eA*e[5mC]*eT*dG*dG*dA*dG*d[5mC]*dT*dG*dG*dT*d[5mC]*e[5mC]*eT*eT*eG*e[5mC]) [compound 416440] — lower, 44%
- 416471 (antisense eT*eG*eA*eG*e[5mC]*dT*dT*dT*dT*dG*d[5mC]*dA*dG*d[5mC]*d[5mC]*eA*e[5mC]*eT*e[5mC]*eG) [compound 416471] — higher, 62%
- 416526 (antisense eT*eG*eT*e[5mC]*e[5mC]*dA*d[5mC]*dA*dT*dG*dA*d[5mC]*d[5mC]*d[5mC]*d[5mC]*eA*e[5mC]*eA*eG*eG) [compound 416526] — lower, 19%
- 416515 (antisense eT*eA*eG*eG*e[5mC]*dA*dT*dG*dA*d[5mC]*d[5mC]*dA*dT*d[5mC]*d[5mC]*eT*e[5mC]*eA*eA*eT) [compound 416515] — lower, 39%
- 416428 (antisense e[5mC]*eT*eG*eG*eG*dT*dT*dA*d[5mC]*dG*dA*dA*dG*dA*d[5mC]*eT*eG*e[5mC]*eA*eG) [compound 416428] — lower, 11%
- 416493 (antisense eT*e[5mC]*eT*eT*eG*dG*dG*dT*dG*dT*dG*dG*dA*dT*dG*eT*eA*eA*eA*eT) [compound 416493] — lower, 0%

Same assay, conditions: HepB3 cells; gapmers (5-10-5, 3-14-3, 2-13-5 MOE) targeted to nucleobases 4868 to 4899 of SEQ ID NO: 1

In the case of “422293 (antisense eA*eG*dT*dT*d[5mC]*dT*dG*d[5mC]*dA*dG*dG*dA*dG*d[5mC]*dG*eG*e[5mC]*e[5mC]*eT*eA) [compound 422293]”, the “% Inhibition of human Factor 7 mRNA levels” value is reported as 69%.

Same assay, conditions: HepB3 cells; gapmers targeted to nucleobases 11830 to 11869 of SEQ ID NO: 1 (Table 9)

Point of comparison: “422161 (antisense eA*e[5mC]*eA*dA*dT*dG*dG*dT*d[5mC]*dA*dG*dG*dG*d[5mC]*dT*dG*dG*eT*eT*eT) [compound 422161]”, “% Inhibition of human Factor 7 mRNA levels” value 53%. Against it:
- 422105 (antisense eT*eG*eG*e[5mC]*eT*dG*dA*dG*dG*dA*dG*dA*d[5mC]*dA*dA*eT*eG*eG*eT*e[5mC]) [compound 422105] — higher, 60%
- 422171 (antisense eG*eG*e[5mC]*dT*dG*dA*dG*dG*dA*dG*dA*d[5mC]*dA*dA*dT*dG*dG*eT*e[5mC]*eA) [compound 422171] — higher, 61%
- 422234 (antisense eT*eG*dG*dT*d[5mC]*dA*dG*dG*dG*d[5mC]*dT*dG*dG*dT*dT*eT*eT*eG*eG*eA) [compound 422234] — higher, 62%
- 422170 (antisense eG*e[5mC]*eT*dG*dA*dG*dG*dA*dG*dA*d[5mC]*dA*dA*dT*dG*dG*dT*e[5mC]*eA*eG) [compound 422170] — lower, 28%
- 422107 (antisense eG*e[5mC]*eT*eG*eG*d[5mC]*dT*dG*dA*dG*dG*dA*dG*dA*d[5mC]*eA*eA*eT*eG*eG) [compound 422107] — lower, 36%

Same assay, conditions: HepB3 cells; gapmers targeted to nucleobases 13760 to 13789 of SEQ ID NO: 1 (Table 10)

Point of comparison: “422176 (antisense e[5mC]*e[5mC]*eG*d[5mC]*d[5mC]*dG*dG*d[5mC]*dT*d[5mC]*dT*dG*d[5mC]*dT*d[5mC]*dA*dT*e[5mC]*e[5mC]*e[5mC]) [compound 422176]”, “% Inhibition of human Factor 7 mRNA levels” value 52%. Against it:
- 422185 (antisense e[5mC]*eT*eG*d[5mC]*dG*d[5mC]*d[5mC]*dA*d[5mC]*d[5mC]*d[5mC]*dG*d[5mC]*d[5mC]*dG*dG*d[5mC]*eT*e[5mC]*eT) [compound 422185] — lower, 48%
- 422256 (antisense e[5mC]*eA*d[5mC]*d[5mC]*d[5mC]*dG*d[5mC]*d[5mC]*dG*dG*d[5mC]*dT*d[5mC]*dT*dG*e[5mC]*eT*e[5mC]*eA*eT) [compound 422256] — lower, 29%

Same assay, conditions: HepB3 cells; gapmers targeted to nucleobases 14707 to 14732 of SEQ ID NO: 1 (Table 11)

For “422131 (antisense eA*eG*e[5mC]*e[5mC]*eT*dG*dA*dG*dG*d[5mC]*d[5mC]*dA*dG*d[5mC]*dA*eG*eA*eT*e[5mC]*eA) [compound 422131]”, the “% Inhibition of human Factor 7 mRNA levels” value was 68%.

Same assay, conditions: HepB3 cells; gapmers targeted to nucleobases 15188 to 15211 of SEQ ID NO: 1 (Table 13)

Point of comparison: “416482 (antisense e[5mC]*eA*eT*eG*eG*dT*dG*dA*dT*dG*d[5mC]*dT*dT*d[5mC]*dT*eG*eA*eA*eT*eT) [compound 416482]”, “% Inhibition of human Factor 7 mRNA levels” value 64%. Against it:
- 422149 (antisense e[5mC]*eA*eT*dG*dG*dT*dG*dA*dT*dG*d[5mC]*dT*dT*d[5mC]*dT*dG*dA*eA*eT*eT) [compound 422149] — lower, 61%
